Source: ChEMBL document CHEMBL4477239 (Bioorg Med Chem, 2016)

Tests used:
[1] = in vitro; details: human, Caco-2
Description: Apparent permeability from apical to basolateral side in Caco2 cells at 1 to 10 uM incubated for 90 mins by LC-MS/MS analysis

[2] = Intrinsic clearance in rat liver microsomes assessed per mg of protein at 1 uM preincubated for 5 mins followed by NADPH addition measured after 5 to 30 mins by LC-MS/MS analysis; assay type: ADME, Microsome; details: read-out: CLH
[3] = test system: NCI-H1993; experiment: Cytotoxicity against human NCI-H1993 cells assessed as growth inhibition after 72 hrs by CCK-8 assay; details: NCI-H1993, 72 h
[4] = Intrinsic clearance in human liver microsomes assessed per mg of protein at 1 uM preincubated for 5 mins followed by NADPH addition measured after 5 to 30 mins by LC-MS/MS analysis; assay type: ADME, Microsome; details: read-out: CLH
[5] = target: Cytochrome P450 2C9 (Homo sapiens, UniProt P11712); experiment: Inhibition of CYP2C9 in human liver microsomes at 10 uM using sulfaphenazole as […] preincubated for 5 mins followed by NADPH addition measured after 20 mins by LC-MS/MS analysis; assay type: ADME
Sequence of Cytochrome P450 2C9 (P11712 whole entry): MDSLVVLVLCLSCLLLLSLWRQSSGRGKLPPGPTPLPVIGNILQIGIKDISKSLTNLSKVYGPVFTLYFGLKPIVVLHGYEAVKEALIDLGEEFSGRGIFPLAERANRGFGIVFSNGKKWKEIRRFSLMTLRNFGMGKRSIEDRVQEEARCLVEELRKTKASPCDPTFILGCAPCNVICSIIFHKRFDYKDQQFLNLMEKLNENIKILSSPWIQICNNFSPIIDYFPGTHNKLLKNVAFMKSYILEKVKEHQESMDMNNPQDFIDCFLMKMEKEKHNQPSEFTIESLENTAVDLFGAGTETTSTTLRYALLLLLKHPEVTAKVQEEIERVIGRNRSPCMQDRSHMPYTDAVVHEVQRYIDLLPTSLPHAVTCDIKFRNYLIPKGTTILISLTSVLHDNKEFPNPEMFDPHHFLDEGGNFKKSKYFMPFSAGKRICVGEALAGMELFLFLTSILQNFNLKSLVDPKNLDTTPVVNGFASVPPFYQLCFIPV

[6] = target: T1, Cytochrome P450 3A4 (Homo sapiens, UniProt P08684); experiment: Time-dependent inhibition of CYP3A4 in human liver microsomes at 10 uM using troleandomycin as […] preincubated with compound followed by NADPH addition by LC-MS/MS analysis; assay type: ADME
T1 sequence (P08684 whole entry): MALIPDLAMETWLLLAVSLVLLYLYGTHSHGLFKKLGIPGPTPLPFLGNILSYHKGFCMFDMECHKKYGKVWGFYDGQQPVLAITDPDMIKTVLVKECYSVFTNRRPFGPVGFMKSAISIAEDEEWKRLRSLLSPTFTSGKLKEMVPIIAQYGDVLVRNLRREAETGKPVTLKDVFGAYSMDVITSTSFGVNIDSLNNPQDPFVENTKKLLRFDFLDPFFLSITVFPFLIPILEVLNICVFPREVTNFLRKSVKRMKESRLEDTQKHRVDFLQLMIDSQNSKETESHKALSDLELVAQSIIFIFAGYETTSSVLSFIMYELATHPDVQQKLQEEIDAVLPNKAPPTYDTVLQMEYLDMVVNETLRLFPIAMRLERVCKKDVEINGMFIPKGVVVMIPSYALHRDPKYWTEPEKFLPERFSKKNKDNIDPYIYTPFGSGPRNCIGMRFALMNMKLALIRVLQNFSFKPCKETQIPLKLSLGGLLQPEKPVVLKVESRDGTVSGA

[7] = target: T2, Cytochrome P450 2D6 (Homo sapiens, UniProt P10635); experiment: Time-dependent inhibition of CYP2D6 in human liver microsomes at 10 uM using paroxetine as […] preincubated with compound followed by NADPH addition by LC-MS/MS analysis; assay type: ADME
T2 sequence (P10635 whole entry): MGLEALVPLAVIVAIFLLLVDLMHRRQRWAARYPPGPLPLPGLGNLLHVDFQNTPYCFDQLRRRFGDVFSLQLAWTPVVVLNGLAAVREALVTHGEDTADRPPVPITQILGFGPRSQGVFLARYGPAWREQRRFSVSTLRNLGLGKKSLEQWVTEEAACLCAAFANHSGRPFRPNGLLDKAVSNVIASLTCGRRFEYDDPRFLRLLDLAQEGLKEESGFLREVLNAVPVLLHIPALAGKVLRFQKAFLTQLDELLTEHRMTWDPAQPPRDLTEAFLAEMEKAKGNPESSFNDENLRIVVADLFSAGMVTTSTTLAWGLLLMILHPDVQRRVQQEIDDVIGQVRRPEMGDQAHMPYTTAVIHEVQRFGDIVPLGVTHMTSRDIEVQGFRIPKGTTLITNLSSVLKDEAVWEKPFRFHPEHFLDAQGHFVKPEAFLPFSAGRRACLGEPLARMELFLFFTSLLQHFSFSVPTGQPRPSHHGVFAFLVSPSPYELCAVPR

[8] = target: T3, Cytochrome P450 1A2 (Homo sapiens, UniProt P05177); experiment: Time-dependent inhibition of CYP1A2 in human liver microsomes at 10 uM using furafylline as […] preincubated with compound followed by NADPH addition by LC-MS/MS analysis; assay type: ADME
T3 sequence (P05177 whole entry): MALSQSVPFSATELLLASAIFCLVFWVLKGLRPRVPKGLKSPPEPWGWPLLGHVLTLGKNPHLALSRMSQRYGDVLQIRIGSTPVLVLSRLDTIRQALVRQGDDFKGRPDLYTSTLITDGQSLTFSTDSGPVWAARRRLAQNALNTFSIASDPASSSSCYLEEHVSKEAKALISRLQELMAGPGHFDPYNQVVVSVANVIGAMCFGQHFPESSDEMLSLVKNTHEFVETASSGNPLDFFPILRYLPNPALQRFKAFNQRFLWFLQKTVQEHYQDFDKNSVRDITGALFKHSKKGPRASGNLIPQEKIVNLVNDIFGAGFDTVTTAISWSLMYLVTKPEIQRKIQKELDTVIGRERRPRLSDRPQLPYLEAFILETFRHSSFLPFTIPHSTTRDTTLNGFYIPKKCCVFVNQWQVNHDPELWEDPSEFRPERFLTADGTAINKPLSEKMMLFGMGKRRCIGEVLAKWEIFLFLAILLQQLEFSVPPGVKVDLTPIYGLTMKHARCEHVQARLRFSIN

[9] = target: Hepatocyte growth factor receptor (Homo sapiens, UniProt P08581)
Sequence of Hepatocyte growth factor receptor (P08581 whole entry): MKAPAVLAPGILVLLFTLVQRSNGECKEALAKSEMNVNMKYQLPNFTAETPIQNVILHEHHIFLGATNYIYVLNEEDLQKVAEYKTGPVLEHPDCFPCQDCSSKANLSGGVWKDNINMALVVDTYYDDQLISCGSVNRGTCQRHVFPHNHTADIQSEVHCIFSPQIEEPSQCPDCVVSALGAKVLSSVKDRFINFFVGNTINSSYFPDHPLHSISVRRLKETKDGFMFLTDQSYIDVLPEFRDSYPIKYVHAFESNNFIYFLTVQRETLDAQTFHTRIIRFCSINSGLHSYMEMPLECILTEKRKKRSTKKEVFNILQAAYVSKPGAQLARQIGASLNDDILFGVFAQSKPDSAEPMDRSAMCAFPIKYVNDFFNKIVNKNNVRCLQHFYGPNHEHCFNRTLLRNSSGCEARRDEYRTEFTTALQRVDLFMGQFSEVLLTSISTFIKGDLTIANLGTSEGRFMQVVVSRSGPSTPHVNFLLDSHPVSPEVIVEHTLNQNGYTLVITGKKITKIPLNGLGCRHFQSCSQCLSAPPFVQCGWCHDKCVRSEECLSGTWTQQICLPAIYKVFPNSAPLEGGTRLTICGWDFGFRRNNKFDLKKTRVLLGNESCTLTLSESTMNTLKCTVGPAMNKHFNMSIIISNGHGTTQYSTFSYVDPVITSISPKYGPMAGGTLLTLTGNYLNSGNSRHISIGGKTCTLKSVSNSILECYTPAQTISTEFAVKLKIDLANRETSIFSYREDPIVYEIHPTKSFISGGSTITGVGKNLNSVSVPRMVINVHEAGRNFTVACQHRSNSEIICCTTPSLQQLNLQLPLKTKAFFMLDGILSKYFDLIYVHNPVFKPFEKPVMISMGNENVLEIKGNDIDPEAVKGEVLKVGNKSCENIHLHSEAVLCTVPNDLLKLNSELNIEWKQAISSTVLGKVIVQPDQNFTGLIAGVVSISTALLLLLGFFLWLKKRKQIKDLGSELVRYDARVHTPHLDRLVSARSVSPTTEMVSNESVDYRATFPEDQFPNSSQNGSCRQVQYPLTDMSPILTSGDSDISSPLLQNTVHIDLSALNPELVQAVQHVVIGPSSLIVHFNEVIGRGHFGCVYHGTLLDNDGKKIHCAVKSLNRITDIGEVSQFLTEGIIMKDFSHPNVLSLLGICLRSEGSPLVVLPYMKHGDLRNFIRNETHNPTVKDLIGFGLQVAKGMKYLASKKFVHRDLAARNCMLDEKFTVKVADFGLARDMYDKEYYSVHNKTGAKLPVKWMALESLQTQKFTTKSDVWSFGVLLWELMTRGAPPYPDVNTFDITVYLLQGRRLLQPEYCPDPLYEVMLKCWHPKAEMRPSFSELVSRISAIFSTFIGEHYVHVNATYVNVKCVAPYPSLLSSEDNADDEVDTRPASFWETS
Description: Inhibition of c-Met kinase (unknown origin) assessed as decrease in phosphorylation of TK substrate-biotin peptide preincubated for 5 to 10 mins followed by ATP addition measured after 30 mins by HTRF assay

[10] = target: T2, Cytochrome P450 2D6; experiment: Inhibition of CYP2D6 in human liver microsomes at 10 uM using quinidine as […] preincubated for 5 mins followed by NADPH addition measured after 20 mins by LC-MS/MS analysis; assay type: ADME
[11] = target: Cytochrome P450 2C19 (Homo sapiens, UniProt P33261); experiment: Inhibition of CYP2C19 in human liver microsomes at 10 uM using tranylcypromine as […] preincubated for 5 mins followed by NADPH addition measured after 20 mins by LC-MS/MS analysis; assay type: ADME
Sequence of Cytochrome P450 2C19 (P33261 whole entry): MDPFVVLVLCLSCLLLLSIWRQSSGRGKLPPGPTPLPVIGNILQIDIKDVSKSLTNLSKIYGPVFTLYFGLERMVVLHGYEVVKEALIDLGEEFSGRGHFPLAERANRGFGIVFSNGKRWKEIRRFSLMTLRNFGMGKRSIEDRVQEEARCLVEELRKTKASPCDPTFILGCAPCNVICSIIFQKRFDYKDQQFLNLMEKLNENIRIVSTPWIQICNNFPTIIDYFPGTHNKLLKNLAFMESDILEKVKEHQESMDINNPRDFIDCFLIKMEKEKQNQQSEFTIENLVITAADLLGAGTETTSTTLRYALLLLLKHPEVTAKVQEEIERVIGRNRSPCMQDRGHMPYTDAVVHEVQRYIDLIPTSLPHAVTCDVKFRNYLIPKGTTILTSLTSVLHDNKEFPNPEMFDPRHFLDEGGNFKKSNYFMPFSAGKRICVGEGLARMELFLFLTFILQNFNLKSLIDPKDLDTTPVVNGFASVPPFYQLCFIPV

[12] = target: T1, Cytochrome P450 3A4; experiment: Inhibition of CYP3A4 in human liver microsomes at 10 uM using ketoconazole as […] preincubated for 5 mins followed by NADPH addition measured after 20 mins by LC-MS/MS analysis; assay type: ADME
[13] = Apparent permeability from basolateral to apical side in Caco2 cells at 1 to 10 uM incubated for 90 mins by LC-MS/MS analysis; assay type: ADME, cell-based; details: human, Caco-2
[14] = Efflux ratio of permeability from basolateral to apical side over apical to basolateral side in Caco2 cells at 1 to 10 uM incubated for 90 mins by LC-MS/MS analysis; assay type: ADME, cell-based; details: human, Caco-2

| Structure (SMILES) | IC50 [3] [µM] | IC50 [9] [µM] | other results |
| --- | --- | --- | --- |
| O=C1OC2(c3ccc([O-])cc3Oc3cc([O-])ccc32)c2ccccc21.[Na+].[Na+] | – | – | Papp A→B at 1.5 h, 10 µM [1]: 2.72 ×10⁻⁶ cm/s |
| CC(c1c(F)cc2ncccc2c1F)n1cnc2ncc(-c3cnn(CCO)c3)nc21 (configuration not stated) | 0.0837 | 0.001 | microsomal CLint at 1 µM [2]: 10 µL/min/mg; microsomal CLint at 1 µM [4]: 2 µL/min/mg; inhibition (INH) [5]: Active; inhibition (INH) [6]: Not Active; inhibition (INH) [7]: Not Active; inhibition (INH) [8]: Not Active |
| CC(c1cc(F)c2ncccc2c1)n1cnc2ncc(-c3cnn(C)c3)nc21 (configuration not stated) | > 10 | 0.0918 | – |
| CC(c1cc(F)c2ncccc2c1)n1cnc2ncc(-c3ccccc3)nc21 (configuration not stated) | > 10 | 0.155 | – |
| C[C@H](c1cc2cccnc2cc1F)n1cnc2ncc(-c3ccc(C(N)=O)c(F)c3)nc21 | 0.329 | 0.00279 | – |
| C1=C(c2cnc3ncn(Cc4ccc5ncccc5c4)c3n2)CCNC1 | 6.66 | 0.0332 | – |
| Cc1c(C(C)n2cnc3ncc(-c4ccncc4)nc32)ccc2ncccc12 (configuration not stated) | 0.95 | 0.0044 | – |
| CC(c1cc(F)c2ncccc2c1)n1cnc2ncc(-c3cn[nH]c3)nc21 (configuration not stated) | > 10 | 0.279 | – |
| CC(c1c(F)cc2ncccc2c1F)n1cnc2ncc(-c3cnc4ccccc4c3)nc21 (configuration not stated) | 0.0461 | 0.0013 | microsomal CLint at 1 µM [2]: 275 µL/min/mg; microsomal CLint at 1 µM [4]: 51 µL/min/mg; inhibition (INH) [10]: Active; inhibition (INH) [5]: Active; inhibition (INH) [11]: Active; inhibition (INH) [6]: Active; inhibition (INH) [7]: Active; inhibition (INH) [8]: Active |
| CC(NC/N=C/c1cnc2[nH]ccc2c1)c1ccc2ncccc2c1 (configuration not stated) | 0.956 | 0.0033 | – |
| CCC(c1cc2cccnc2cc1F)n1cnc2ncc(-c3ccc(C(N)=O)c(F)c3)nc21 (configuration not stated) | 0.226 | 0.0025 | – |
| CC(NC/N=C/c1cnn(CCO)c1)c1ccc2ncccc2c1 (configuration not stated) | 0.148 | 0.0127 | – |
| Cc1c(C(C)n2cnc3ncc(-c4cnn(C)c4)nc32)ccc2ncccc12 (configuration not stated) | 0.206 | 0.0032 | – |
| CC(NC/N=C/c1ccccc1)c1ccc2ncccc2c1 (configuration not stated) | 1.22 | 0.00517 | – |
| CC(NC/N=C/C1=CCNCC1)c1ccc2ncccc2c1 (configuration not stated) | 2.66 | 0.0152 | – |
| CC(c1cc2cccnc2cc1F)n1cnc2ncc(-c3cn[nH]c3)nc21 (configuration not stated) | 0.187 | 0.0036 | – |
| Cc1c(C(C)n2cnc3ncc(-c4cnc5ccccc5c4)nc32)ccc2ncccc12 (configuration not stated) | 0.45 | 0.0049 | – |
| COC(=O)c1ccc(/C=N/CNC(C)c2ccc3ncccc3c2)cc1F (configuration not stated) | 1.11 | 0.00641 | – |
| CC(c1c(F)cc2ncccc2c1F)n1cnc2ncc(-c3cnn(C)c3)nc21 (configuration not stated) | 0.0355 | 0.001 | microsomal CLint at 1 µM [2]: 63 µL/min/mg; microsomal CLint at 1 µM [4]: 11 µL/min/mg; inhibition (INH) [5]: Active; inhibition (INH) [11]: Active; inhibition (INH) [6]: Not Active; inhibition (INH) [7]: Not Active; inhibition (INH) [8]: Not Active |
| Cc1c(C(C)n2cnc3ncc(-c4cn[nH]c4)nc32)ccc2ncccc12 (configuration not stated) | 0.599 | 0.0027 | – |
| Fc1ccccc1-c1cnc2ncn(Cc3ccc4ncccc4c3)c2n1 | > 10 | 0.0246 | – |
| CC(c1cc2cccnc2cc1F)n1cnc2ncc(-c3ccncc3)nc21 (configuration not stated) | 0.171 | 0.0038 | – |
| FC(F)(F)Oc1ccc(-c2cnc3ncn(Cc4ccc5ncccc5c4)c3n2)cc1 | > 10 | 0.0812 | – |

| Structure (SMILES) | IC50 [3] [µM] | IC50 [9] [µM] | other results |
| --- | --- | --- | --- |
| COC(=O)c1ccc(-c2cnc3ncn(C(C)c4c(F)cc5ncccc5c4F)c3n2)cc1F (configuration not stated) | 0.0294 | 0.0049 | microsomal CLint at 1 µM [2]: 179 µL/min/mg; microsomal CLint at 1 µM [4]: 290 µL/min/mg; inhibition (INH) [5]: Active; inhibition (INH) [6]: Not Active; inhibition (INH) [7]: Not Active; inhibition (INH) [8]: Not Active |
| CC(NC/N=C/c1cnn(C)c1)c1ccc2ncccc2c1 (configuration not stated) | 0.197 | 0.00249 | – |
| CC(NC/N=C/c1ccc(C(N)=O)c(F)c1)c1ccc2ncccc2c1 (configuration not stated) | 0.238 | 0.00274 | – |
| CCC(c1ccc2ncccc2c1F)n1cnc2ncc(-c3ccc(C(N)=O)c(F)c3)nc21 (configuration not stated) | 0.665 | 0.0016 | – |
| CNC(=O)c1ccc(/C=N/CNC(C)c2ccc3ncccc3c2)cc1F (configuration not stated) | 0.191 | 0.00395 | – |
| CC(c1c(F)cc2ncccc2c1F)n1cnc2ncc(-c3ccccc3)nc21 (configuration not stated) | 0.514 | 0.0018 | – |
| CC(NC/N=C/c1ccnn1C)c1ccc2ncccc2c1 (configuration not stated) | 3.29 | 0.0385 | – |
| CC(c1cc2cccnc2cc1F)n1cnc2ncc(-c3cnc4ccccc4c3)nc21 (configuration not stated) | 0.109 | 0.0034 | – |
| CC(NC/N=C/c1cn[nH]c1)c1ccc2ncccc2c1 (configuration not stated) | 0.519 | 0.0114 | – |
| CC(c1cc(F)c2ncccc2c1)n1cnc2ncc(-c3ccncc3)nc21 (configuration not stated) | > 10 | 0.19 | – |
| C[C@@H](c1cc2cccnc2cc1F)n1cnc2ncc(-c3ccc(C(N)=O)c(F)c3)nc21 | 0.0118 | 0.00132 | microsomal CLint at 1 µM [2]: 131 µL/min/mg; microsomal CLint at 1 µM [4]: 23 µL/min/mg; inhibition (INH) [12]: Active; inhibition (INH) [5]: Active; inhibition (INH) [6]: Not Active; Papp B→A at 1.5 h [13]: 47.9 ×10⁻⁶ cm/s; efflux ratio at 1.5 h [14]: 1.1; Papp A→B at 1.5 h, 10 µM [1]: 43.7 ×10⁻⁶ cm/s |
| CC(c1cc2cccnc2cc1F)n1cnc2ncc(-c3cnn(CCO)c3)nc21 (configuration not stated) | 0.175 | 0.0045 | – |
| C[C@H](c1cc2cccnc2cc1F)n1cnc2ncc(-c3cnn(C)c3)nc21 | 0.239 | 0.00194 | – |
| CC(c1c(F)cc2ncccc2c1F)n1cnc2ncc(-c3ccncc3)nc21 (configuration not stated) | 0.162 | 0.0016 | microsomal CLint at 1 µM [2]: 77 µL/min/mg; microsomal CLint at 1 µM [4]: 14 µL/min/mg; inhibition (INH) [12]: Active; inhibition (INH) [5]: Active; inhibition (INH) [11]: Active; inhibition (INH) [6]: Not Active; inhibition (INH) [7]: Not Active; inhibition (INH) [8]: Not Active |
| CC(NC/N=C/c1ccncc1)c1ccc2ncccc2c1 (configuration not stated) | 0.614 | 0.00367 | – |
| COC(=O)c1ccc(-c2cnc3ncn(C(C)c4cc5cccnc5cc4F)c3n2)cc1F (configuration not stated) | 0.0602 | 0.0029 | microsomal CLint at 1 µM [2]: 125 µL/min/mg; microsomal CLint at 1 µM [4]: 73 µL/min/mg; inhibition (INH) [5]: Active; inhibition (INH) [6]: Not Active; inhibition (INH) [7]: Not Active; inhibition (INH) [8]: Not Active |
| Cc1c(C(C)n2cnc3ncc(-c4cnn(CCO)c4)nc32)ccc2ncccc12 (configuration not stated) | 0.726 | 0.0042 | – |
| CC(c1cc2cccnc2cc1F)n1cnc2ncc(-c3ccc(C(N)=O)c(F)c3)nc21 (configuration not stated) | 0.0195 | 0.0017 | microsomal CLint at 1 µM [2]: 85 µL/min/mg; microsomal CLint at 1 µM [4]: 14 µL/min/mg; inhibition (INH) [5]: Active; inhibition (INH) [6]: Not Active; inhibition (INH) [7]: Not Active; inhibition (INH) [8]: Not Active; Papp B→A at 1.5 h [13]: 81.4 ×10⁻⁶ cm/s; efflux ratio at 1.5 h [14]: 0.99; Papp A→B at 1.5 h, 10 µM [1]: 82.3 ×10⁻⁶ cm/s |
| CC(c1cc2cccnc2cc1F)n1cnc2ncc(-c3ccccc3)nc21 (configuration not stated) | 0.57 | 0.0046 | – |
| CC(c1cc(F)c2ncccc2c1)n1cnc2ncc(-c3cnc4ccccc4c3)nc21 (configuration not stated) | > 10 | 0.134 | – |
| CC(=O)O[C@H]1C(=O)[C@@]2(C)[C@H]([C@H](OC(=O)c3ccccc3)[C@]3(O)C[C@H](OC(=O)[C@H](O)[C@@H](NC(=O)c4ccccc4)c4ccccc4)C(C)=C1C3(C)C)[C@]1(OC(C)=O)CO[C@@H]1C[C@@H]2O [PACLITAXEL] | – | – | Papp B→A at 1.5 h [13]: 3.3 ×10⁻⁶ cm/s; efflux ratio at 1.5 h [14]: 2.27; Papp A→B at 1.5 h, 10 µM [1]: 1.46 ×10⁻⁶ cm/s |
| CC(C)NCC(O)COc1cccc2ccccc12 (configuration not stated) [PROPRANOLOL] | – | – | Papp A→B at 1.5 h, 10 µM [1]: 21.5 ×10⁻⁶ cm/s |
